Assay: SPR measurement of tracer molecule diffusion in a hydrogel layer (channel chip)
Assay type: physicochemical
Details: aqueous solutions of glucose and ethanol as tracer molecules; FIG. 5
Description: Hereinafter, a molecular diffusion evaluation method according to an embodiment of the present invention will be described with reference to FIG. 1. First, in step S101, a solution in which a target molecule (tracer molecule) is dissolved is introduced into a channel. The channel is formed on, for example, a measurement chip used by being attached to a surface plasmon resonance (SPR) measurement system. The channel includes a measurement area by surface plasmon resonance and a hydrogel layer provided in the middle of the measurement area. […] In a process where the solution in which the target molecule is dissolved passes through the portion where the hydrogel layer is not formed and the portion where the hydrogel layer is formed, the refractive index (SPR angle) at each portion is measured in time series, and the refractive index change (time change in SPR angle) at each portion is acquired. The refractive index change measured in the process of passing through the portion where the hydrogel layer is not formed is the first measurement result. In addition, the refractive index change measured in the process of passing through the portion where the hydrogel layer is formed is the second measurement result. Next, in step S103, the diffusion rate of molecules in the hydrogel is evaluated by comparing the first measurement result with the second measurement result (evaluation step). […]

**Q.** With CCO [ethanol] as the compound, how does the “diffusion rate in the acrylamide gel, comparison of scaled SPR angle change curves” value read?
**A.** different

— patent US20240402081A1, “MOLECULAR DIFFUSION EVALUATION METHOD AND SYSTEM” (Nippon Telegraph and Telephone Corporation, priority 2021, published 2024)
